Source: US20260258048A1, “LACTAM-CONTAINING IMIDAZOPYRIDAZINE IL-17 INHIBITOR COMPOUNDS” (Janssen Pharmaceutica NV, priority 2023, published 2026)

Experiments:
[1] = biological target: IL-17A(FLAG-tagged): IL-17RA(His-tagged) (Homo sapiens, UniProt Q16552, K93Q); experiment: IL-17A(FLAG-tagged): IL-17RA(His-tagged) binding disruption Eu-HTRF assay; conditions: class of the average IC50 where tested more than once
Outline: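 Compound (22-point, 2-fold series) was pre-incubated 1 h at rt with FLAG-IL-17A, added as a 2× solution (1 μM). A 2× mix of C-terminal 10×His IL-17RA, Eu-anti-FLAG donor and D2-anti-His acceptor in PBS/0.01% Triton X-100/200 mM KF was then added for 2 h at rt. The 665/615 nm ratio was fitted to one-site competition for IC50.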

[2] = system: IL-17A-induced G-CSF production in human normal keratinocyte (NHK); experiment: NHK assay: IL-17A-induced G-CSF production in normal human keratinocytes; format: cell-based; conditions: Homo sapiens, Keratinocyte, 24 h, IL-17A 5 ng/mL, class of the average IC50 where tested more than once
Outline: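 Adult keratinocytes at 3000-4000 cells/well; recombinant human IL-17A pre-incubated 1 h at rt with titrated compound, then added to cells (final 5 ng/mL IL-17A, 0.2% DMSO, 5% FBS) for 24 h at 37 °C. Supernatant G-CSF quantified by HTRF against a standard curve to give IC50; viability checked by CellTiter-Glo versus DMSO.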

Chain of UniProt Q16552 (Q16552 with tags, fused parts or gaps K93Q): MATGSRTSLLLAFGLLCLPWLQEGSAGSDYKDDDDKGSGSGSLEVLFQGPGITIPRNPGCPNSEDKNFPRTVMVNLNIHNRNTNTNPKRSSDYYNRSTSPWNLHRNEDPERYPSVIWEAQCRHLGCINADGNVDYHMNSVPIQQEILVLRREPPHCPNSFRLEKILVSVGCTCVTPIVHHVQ

`O=C(N[C@H](c1cn2ncc(CC3CCNC3=O)cc2n1)C1CCC(F)(F)CC1)c1nonc1C1CC1` (single isomer, unassigned) [Example 21, 4-Cyclopropyl-N—[(S)-(4,4-difluorocyclohexyl)-[7-[[(3R*)-2-oxopyrrolidin-3-yl]methyl]imidazo[1,2-b]pyridazin-2-yl]methyl]-1,2,5-oxadiazole-3-carboxamide] was tested, and the IC50 [1] was 0.4 to 4 µM and the IC50 [2] was > 4 µM.
